Data taken from patent publication US12486253B2, “Therapeutics for the degradation of mutant BRAF” (C4 THERAPEUTICS, INC., priority 2021, dated 2025).
“Also recorded” adds a separate entry of the source. Read-outs that look alike come from different tables or passages of the source.

Legend:
Format in all cases: cell-based
phospho-ERK (T202/Y204) [1] = test: HTRF phospho-ERK (T202/Y204) inhibition assay in A375 cells; settings: Homo sapiens, A-375, 24 hrs, mean of at least n = 3, read-out: pERK IC50
Procedure: (§1) A375 (harboring BRAF homozygous V600E mutation) were purchased from ATCC. DMEM Medium without phenol red and supplemented with L-glutamine was purchased from Corning (Corning, NY, USA). Advanced phospho-ERK (Thr202/Tyr204) HTRF assay kits were purchased from Cisbio (Bedford, MA, USA). Cell culture flasks and 384-well microplates were acquired from VWR (Radnor, PA, USA) or Corning (Corning, NY, USA).
(§2) Degradation of activated phospho-ERK (T202/Y204) protein was determined based on quantification of FRET signal using the Advanced phospho-ERK (T202/Y204) HTRF assay kit. Test compounds were added to the 384-well plate from a top concentration of 10 μM with 11 points, half log titration in duplicates. A375 cells were added into 384-well plates at a cell density of 8000 cells per well, respectively. The plates were kept at 37° C. with 5% CO2 for 24 hours. Cells treated in the absence of the test compound were the negative control. Positive control was set by wells containing all reagents but no cells. FRET signal was acquired on EnVision™ Multilabel Reader (PerkinElmer, Santa Clara, CA, USA).

A375 cells = test: A375 cell growth (GI50); settings: Homo sapiens, A-375, at 96 hr
p61 splice variant = biological target: T1, p61 splice variant (Homo sapiens, UniProt P15056+Q96SW2, DEL169-380/V600E); test: Western blot of engineered HEK-293T cells expressing the p61 splice variant; settings: lentivirus expression
T1 construct: host or cells: HEK-293T, lentiviral expression
T1 sequence (P15056 with tags, fused parts or gaps DEL169-380/V600E): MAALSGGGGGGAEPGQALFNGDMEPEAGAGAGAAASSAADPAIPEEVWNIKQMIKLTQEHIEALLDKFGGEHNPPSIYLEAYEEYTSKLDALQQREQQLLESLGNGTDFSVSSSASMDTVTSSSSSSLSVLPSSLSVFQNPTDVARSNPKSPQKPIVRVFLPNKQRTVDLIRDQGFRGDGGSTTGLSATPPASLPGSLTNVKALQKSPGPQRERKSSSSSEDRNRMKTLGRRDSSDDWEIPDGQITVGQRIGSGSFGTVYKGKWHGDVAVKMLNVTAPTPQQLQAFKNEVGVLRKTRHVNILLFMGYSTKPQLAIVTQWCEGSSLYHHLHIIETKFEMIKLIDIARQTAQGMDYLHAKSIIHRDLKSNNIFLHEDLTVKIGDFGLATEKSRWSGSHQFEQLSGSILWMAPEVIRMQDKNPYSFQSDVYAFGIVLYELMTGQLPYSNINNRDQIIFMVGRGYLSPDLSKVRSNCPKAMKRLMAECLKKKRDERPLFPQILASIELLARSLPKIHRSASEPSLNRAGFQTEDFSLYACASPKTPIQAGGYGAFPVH
T1 sequence (Q96SW2 whole entry, stated change not applied, canonical isoform): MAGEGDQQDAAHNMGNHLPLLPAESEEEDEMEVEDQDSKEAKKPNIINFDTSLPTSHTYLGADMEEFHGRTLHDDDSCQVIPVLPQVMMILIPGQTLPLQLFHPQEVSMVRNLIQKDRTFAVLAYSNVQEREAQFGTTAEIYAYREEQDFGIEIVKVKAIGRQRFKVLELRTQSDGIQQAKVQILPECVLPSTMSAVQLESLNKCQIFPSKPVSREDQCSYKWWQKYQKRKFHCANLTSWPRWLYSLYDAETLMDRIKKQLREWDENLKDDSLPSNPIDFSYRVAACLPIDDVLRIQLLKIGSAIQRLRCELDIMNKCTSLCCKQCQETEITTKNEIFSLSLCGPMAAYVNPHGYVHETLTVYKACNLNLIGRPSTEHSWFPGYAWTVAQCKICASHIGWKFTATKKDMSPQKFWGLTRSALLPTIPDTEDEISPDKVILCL
T1 sequence (Q16531 whole entry partner, canonical isoform): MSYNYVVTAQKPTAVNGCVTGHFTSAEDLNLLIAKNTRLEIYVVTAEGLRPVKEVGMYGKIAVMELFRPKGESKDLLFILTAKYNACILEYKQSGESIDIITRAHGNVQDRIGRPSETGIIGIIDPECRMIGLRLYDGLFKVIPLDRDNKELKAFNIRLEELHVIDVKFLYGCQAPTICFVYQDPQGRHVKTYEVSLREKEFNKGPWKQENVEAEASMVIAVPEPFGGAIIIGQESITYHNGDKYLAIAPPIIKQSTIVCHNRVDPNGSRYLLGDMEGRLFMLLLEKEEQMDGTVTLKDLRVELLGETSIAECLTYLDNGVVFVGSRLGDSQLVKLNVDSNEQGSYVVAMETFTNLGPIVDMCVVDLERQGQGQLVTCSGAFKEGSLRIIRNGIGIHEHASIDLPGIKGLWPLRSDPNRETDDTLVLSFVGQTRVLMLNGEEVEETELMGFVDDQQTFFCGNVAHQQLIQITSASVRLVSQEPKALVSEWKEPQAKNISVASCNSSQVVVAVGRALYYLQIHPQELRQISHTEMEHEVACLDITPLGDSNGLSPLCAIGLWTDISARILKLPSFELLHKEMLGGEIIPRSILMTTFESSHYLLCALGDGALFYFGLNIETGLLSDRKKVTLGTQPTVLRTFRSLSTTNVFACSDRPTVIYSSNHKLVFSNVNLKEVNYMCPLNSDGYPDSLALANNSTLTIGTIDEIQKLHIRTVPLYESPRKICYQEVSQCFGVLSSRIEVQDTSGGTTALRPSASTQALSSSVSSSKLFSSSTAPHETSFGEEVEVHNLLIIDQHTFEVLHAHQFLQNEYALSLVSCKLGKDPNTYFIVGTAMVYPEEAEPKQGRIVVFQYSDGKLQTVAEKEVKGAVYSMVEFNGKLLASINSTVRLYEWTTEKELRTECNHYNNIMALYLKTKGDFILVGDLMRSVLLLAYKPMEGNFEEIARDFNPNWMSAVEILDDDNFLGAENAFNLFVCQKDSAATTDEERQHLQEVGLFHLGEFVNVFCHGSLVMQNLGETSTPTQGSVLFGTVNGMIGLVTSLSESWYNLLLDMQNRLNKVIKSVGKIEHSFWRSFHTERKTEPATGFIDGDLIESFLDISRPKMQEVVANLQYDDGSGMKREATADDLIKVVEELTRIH

phospho-ERK (T202/Y204) [2] = test: HTRF phospho-ERK (T202/Y204) assay in A375-NRAS^Q61K cells; settings: 24 hrs, mean of at least n = 3, read-out: pERK IC50
Text: as §1, with “A375-NRAS^Q61K cells” for “A375”, “V600E mutation and NRAS homozygous Q61K” for “V600E”
as §2, with “A375-NRAS^Q61K” for “A375”, “2000” for “8000”, “well.” for “well, respectively.”

[3] = tested on: A375 cells expressing the oncogenic NRAS^Q61K mutation; test: Cellular growth over time of A375 cells expressing NRAS^Q61K
BRAF V600E [4] = biological target: T2, BRAF V600E (Homo sapiens, UniProt P15056, V600E); test: Western blot of BRAF V600E levels in A375 cells; design: host or cells: A375
T2 sequence (P15056 whole entry V600E): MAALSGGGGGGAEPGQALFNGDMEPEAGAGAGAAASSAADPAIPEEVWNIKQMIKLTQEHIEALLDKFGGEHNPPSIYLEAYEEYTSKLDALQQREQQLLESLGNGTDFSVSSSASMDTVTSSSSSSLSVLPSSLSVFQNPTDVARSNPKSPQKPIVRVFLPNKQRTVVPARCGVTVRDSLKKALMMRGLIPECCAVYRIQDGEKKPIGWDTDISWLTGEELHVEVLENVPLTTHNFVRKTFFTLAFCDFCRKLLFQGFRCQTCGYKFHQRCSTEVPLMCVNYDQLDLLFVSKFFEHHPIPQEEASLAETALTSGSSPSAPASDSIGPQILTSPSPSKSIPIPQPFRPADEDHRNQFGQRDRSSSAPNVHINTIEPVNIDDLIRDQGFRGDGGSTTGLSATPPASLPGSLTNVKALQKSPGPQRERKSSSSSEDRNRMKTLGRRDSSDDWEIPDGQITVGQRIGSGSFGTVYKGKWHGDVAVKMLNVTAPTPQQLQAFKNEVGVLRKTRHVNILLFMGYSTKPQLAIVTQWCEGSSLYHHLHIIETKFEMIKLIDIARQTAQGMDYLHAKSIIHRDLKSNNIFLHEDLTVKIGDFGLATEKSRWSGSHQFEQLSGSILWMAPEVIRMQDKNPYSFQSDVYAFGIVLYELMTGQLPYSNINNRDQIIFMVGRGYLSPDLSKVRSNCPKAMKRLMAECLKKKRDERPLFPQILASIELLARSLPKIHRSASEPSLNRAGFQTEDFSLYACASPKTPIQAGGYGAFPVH

BRAF V600E [5] = biological target: T2, BRAF V600E; test: HiBiT cellular BRAF^V600E degradation assay
HCT-116 = HCT-116 cell growth; settings: HCT-116, mutant KRAS driven, WT BRAF
A375-NRAS^Q61K cells = test: CellTiter-Glo growth inhibition assay, A375-NRAS^Q61K cells; settings: 96 hr, mean of at least n = 3
Procedure: A375-NRAS^Q61K cells (harboring BRAF homozygous V600E mutation and NRAS homozygous Q61K mutation) were purchased from ATCC. DMEM Medium (without phenol red and supplemented with L-glutamine) was purchased from Corning (Corning, NY, USA). CellTiter-Glo® 2.0 Assay was purchased from Promega (Madison, WI, USA). Cell culture flasks and 384-well microplates were acquired from VWR (Radnor, PA, USA) or Corning (Corning, NY, USA).
A375-NRAS^Q61K cell viability was determined based on quantification of ATP using CellTiter-Glo® 2.0 luminescent Assay kit, which signals the presence of metabolically-active cells. Briefly, test compound was added to 384-well plates at a top concentration of 10 μM with 14 points, half log titration in duplicates. A375-NRAS^Q61K cells were seeded into the 384-well plates in DMEM medium containing 10% FBS at a cell density of 250 cells per well. Cells treated in the absence of the test compound were the negative control, normalized to 100% viability, and cells treated in the absence of CellTiter-Glo® 2.0 were the positive control, normalized to 0% viability. A375 cells were incubated at 37° C. with 5% CO2 for 96 hr. CellTiter-Glo reagent was then added to the cells and Luminescence was acquired on EnVision™ Multilabel Reader (PerkinElmer, Santa Clara, CA, USA).

**Q.** Which results are given for `CCN(C)S(=O)(=O)Nc1ccc(F)c(Oc2ccc3ncn([C@H]4COC5(CCN(C(=O)CC6(O)CCN(c7cc8c(cc7F)c(N7CCC(=O)NC7=O)nn8C)CC6)CC5)C4)c(=O)c3c2)c1C#N` [Compound 157, (3R)-3-[6-[2-cyano-3-[[ethyl(methyl)sulfamoyl]amino]-6-fluorophenoxy]-4-oxoquinazolin-3-yl]-8-[2-[1-[3-(2,4-dioxo-1,3-diazinan-1-yl)-5-fluoro-1-methylindazol-6-yl]-4-hydroxypiperidin-4-yl]acetyl]-1-oxa-8-azaspiro[4.5]decane]?
**A.** IC50 (phospho-ERK (T202/Y204) [1]): 0.0032 µM; GI50 (A375 cells): 0.094 µM; degradation of p61 splice variant (p61 splice variant): capable of degrading; IC50 (phospho-ERK (T202/Y204) [2]): 0.0078 µM; confluency [3]: ≤ 50%; BRAF V600E levels (BRAF V600E [4]): significantly decreased; also recorded: decrease in a dose dependent manner; BRAF protein degraded (BRAF V600E [5]): 74%; HiBit 24 h Emax (BRAF V600E [5]): 27.48%; Emax (BRAF V600E [5]; A-375, read-out: Emax BRAF^V600E degradation): 26%; Emax (BRAF V600E [5]; read-out: HiBit 24 h Emax): ~25%; effect on cell growth (HCT-116): no effect; also recorded: no impact on cell growth; GI50 (A375-NRAS^Q61K cells): 0.055 µM
